Assay results reported in PubChem BioAssay (NCI).
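Protocol summary: plate cells (96-well), add compound at 5 concentrations, incubate 48 h, interpolate endpoints linearly. GI50 = concentration required for 50% inhibition of growth. TGI: concentration producing complete growth inhibition.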

Key:
Test in all cases: NCI anticancer screen, dose series, 48 h
PC-3 prostate = tested on: PC-3 prostate
ACHN renal = tested on: ACHN renal
OVCAR-5 ovarian = tested on: OVCAR-5 ovarian
HCT-15 colon = tested on: HCT-15 colon
786-0 renal = tested on: 786-0 renal
SN12C renal = tested on: SN12C renal
MOLT-4 leukemia = tested on: MOLT-4 leukemia
NCI-H460 lung = tested on: NCI-H460 lung
SF-539 CNS = tested on: SF-539 CNS
U251 CNS = tested on: U251 CNS
TK-10 renal = tested on: TK-10 renal
LOX IMVI melanoma = tested on: LOX IMVI melanoma
SF-268 CNS = tested on: SF-268 CNS
CCRF-CEM leukemia = tested on: CCRF-CEM leukemia
HCT-116 colon = tested on: HCT-116 colon
SK-MEL-5 melanoma = tested on: SK-MEL-5 melanoma
NCI-H226 lung = tested on: NCI-H226 lung
UACC-257 melanoma = tested on: UACC-257 melanoma
NCI-H23 lung = tested on: NCI-H23 lung
MDA-MB-231 breast = tested on: MDA-MB-231 breast
SK-MEL-28 melanoma = tested on: SK-MEL-28 melanoma
SK-OV-3 ovarian = tested on: SK-OV-3 ovarian
HOP-62 NSCLC = tested on: HOP-62 NSCLC
CAKI-1 renal = tested on: CAKI-1 renal
NCI/ADR-RES ovarian = tested on: NCI/ADR-RES ovarian
SNB-75 CNS = tested on: SNB-75 CNS
NCI-H522 lung = tested on: NCI-H522 lung
SR leukemia = tested on: SR leukemia
UO-31 renal = tested on: UO-31 renal
HOP-92 NSCLC = tested on: HOP-92 NSCLC
T-47D breast = tested on: T-47D breast
A549 NSCLC = tested on: A549 NSCLC
BT-549 breast = tested on: BT-549 breast
DU-145 prostate = tested on: DU-145 prostate
K-562 leukemia = tested on: K-562 leukemia
HT29 colon = tested on: HT29 colon
MDA-MB-435 = tested on: MDA-MB-435
IGROV1 ovarian = tested on: IGROV1 ovarian
MALME-3M melanoma = tested on: MALME-3M melanoma
SF-295 CNS = tested on: SF-295 CNS
SK-MEL-2 melanoma = tested on: SK-MEL-2 melanoma
HCC-2998 colon = tested on: HCC-2998 colon
EKVX NSCLC = tested on: EKVX NSCLC
COLO 205 colon = tested on: COLO 205 colon
SNB-19 CNS = tested on: SNB-19 CNS
OVCAR-8 ovarian = tested on: OVCAR-8 ovarian
HL-60(TB) leukemia = tested on: HL-60(TB) leukemia
A498 renal = tested on: A498 renal
UACC-62 melanoma = tested on: UACC-62 melanoma
HS 578T breast = tested on: HS 578T breast
RXF 393 renal = tested on: RXF 393 renal
OVCAR-4 ovarian = tested on: OVCAR-4 ovarian
MCF7 breast = tested on: MCF7 breast
M14 melanoma = tested on: M14 melanoma
KM12 colon = tested on: KM12 colon
OVCAR-3 ovarian = tested on: OVCAR-3 ovarian
RPMI-8226 leukemia = tested on: RPMI-8226 leukemia
SW-620 colon = tested on: SW-620 colon

With `Nc1ncc(-c2ccc3ncnc(N4CCc5cc(F)c(Cl)cc54)c3c2)cc1C=O` the GI50 (PC-3 prostate) was 0.824 µM, the TGI (PC-3 prostate) was over 100 µM and the GI50 (ACHN renal) was 0.638 µM. The TGI (ACHN renal) was over 100 µM, the GI50 (OVCAR-5 ovarian) was 0.867 µM and the TGI (OVCAR-5 ovarian) was over 100 µM. It also gave a GI50 (HCT-15 colon) of 2.41 µM, a TGI (HCT-15 colon) of over 100 µM and a GI50 (786-0 renal) of 0.658 µM. It also gave a TGI (786-0 renal) of over 100 µM, a GI50 (SN12C renal) of 1.05 µM and a TGI (SN12C renal) of over 100 µM. It also gave a GI50 (MOLT-4 leukemia) of 1.01 µM, a TGI (MOLT-4 leukemia) of 6.56 µM and a GI50 (NCI-H460 lung) of 0.814 µM. It also gave a TGI (NCI-H460 lung) of over 100 µM, a GI50 (SF-539 CNS) of 2.38 µM and a TGI (SF-539 CNS) of over 100 µM. It also gave a GI50 (U251 CNS) of 2.7 µM, a TGI (U251 CNS) of over 100 µM and a GI50 (TK-10 renal) of 0.248 µM. The TGI (TK-10 renal) was 3.65 µM, the GI50 (LOX IMVI melanoma) was 2.52 µM and the TGI (LOX IMVI melanoma) was over 100 µM. For the same compound, the GI50 (SF-268 CNS) was 1.02 µM, the TGI (SF-268 CNS) was over 100 µM and the GI50 (CCRF-CEM leukemia) was 2.12 µM. The TGI (CCRF-CEM leukemia) was over 100 µM, the GI50 (HCT-116 colon) was 2.29 µM and the TGI (HCT-116 colon) was over 100 µM. The GI50 (SK-MEL-5 melanoma) was 1.87 µM, the TGI (SK-MEL-5 melanoma) was 4.54 µM and the GI50 (NCI-H226 lung) was 0.861 µM. It also gave a TGI (NCI-H226 lung) of over 100 µM, a GI50 (UACC-257 melanoma) of 1.64 µM and a TGI (UACC-257 melanoma) of over 100 µM. For the same compound, the GI50 (NCI-H23 lung) was 2.35 µM, the TGI (NCI-H23 lung) was over 100 µM and the GI50 (MDA-MB-231 breast) was 1.8 µM. The TGI (MDA-MB-231 breast) was over 100 µM, the GI50 (SK-MEL-28 melanoma) was 1.61 µM and the TGI (SK-MEL-28 melanoma) was over 100 µM. For the same compound, the GI50 (SK-OV-3 ovarian) was 1.04 µM, the TGI (SK-OV-3 ovarian) was 6.42 µM and the GI50 (HOP-62 NSCLC) was 0.896 µM. The TGI (HOP-62 NSCLC) was over 100 µM, the GI50 (CAKI-1 renal) was 0.845 µM and the TGI (CAKI-1 renal) was over 26.2 µM. It also gave a GI50 (NCI/ADR-RES ovarian) of 2.82 µM, a TGI (NCI/ADR-RES ovarian) of over 100 µM and a GI50 (SNB-75 CNS) of 0.191 µM. The TGI (SNB-75 CNS) was 2.77 µM, the GI50 (NCI-H522 lung) was 2.17 µM and the TGI (NCI-H522 lung) was over 100 µM. For the same compound, the GI50 (SR leukemia) was 2.67 µM, the TGI (SR leukemia) was over 26 µM and the GI50 (UO-31 renal) was 0.277 µM. It also gave a TGI (UO-31 renal) of over 100 µM, a GI50 (HOP-92 NSCLC) of 0.149 µM and a TGI (HOP-92 NSCLC) of 1.46 µM. It also gave a GI50 (T-47D breast) of 0.587 µM, a TGI (T-47D breast) of over 100 µM and a GI50 (A549 NSCLC) of 0.949 µM. The TGI (A549 NSCLC) was 12.5 µM, the GI50 (BT-549 breast) was 1.31 µM and the TGI (BT-549 breast) was over 100 µM. The GI50 (DU-145 prostate) was 0.936 µM, the TGI (DU-145 prostate) was over 100 µM and the GI50 (K-562 leukemia) was 2.82 µM. It also gave a TGI (K-562 leukemia) of over 100 µM, a GI50 (HT29 colon) of 1.57 µM and a TGI (HT29 colon) of over 100 µM. The GI50 (MDA-MB-435) was 0.909 µM, the TGI (MDA-MB-435) was 6.97 µM and the GI50 (IGROV1 ovarian) was 0.314 µM. The TGI (IGROV1 ovarian) was 2.39 µM, the GI50 (MALME-3M melanoma) was 1.13 µM and the TGI (MALME-3M melanoma) was over 100 µM. It also gave a GI50 (SF-295 CNS) of 1.32 µM, a TGI (SF-295 CNS) of over 27.9 µM and a GI50 (SK-MEL-2 melanoma) of 1.59 µM. The TGI (SK-MEL-2 melanoma) was 6.05 µM, the GI50 (HCC-2998 colon) was 2.29 µM and the TGI (HCC-2998 colon) was over 100 µM. For the same compound, the GI50 (EKVX NSCLC) was 0.371 µM, the TGI (EKVX NSCLC) was over 100 µM and the GI50 (COLO 205 colon) was 1.9 µM. It also gave a TGI (COLO 205 colon) of over 100 µM, a GI50 (SNB-19 CNS) of 2.28 µM and a TGI (SNB-19 CNS) of over 100 µM. For the same compound, the GI50 (OVCAR-8 ovarian) was 2.54 µM, the TGI (OVCAR-8 ovarian) was over 100 µM and the GI50 (HL-60(TB) leukemia) was 0.403 µM. It also gave a TGI (HL-60(TB) leukemia) of 3.86 µM, a GI50 (A498 renal) of 0.167 µM and a TGI (A498 renal) of 0.758 µM. For the same compound, the GI50 (UACC-62 melanoma) was 0.574 µM, the TGI (UACC-62 melanoma) was 3.02 µM and the GI50 (HS 578T breast) was 0.369 µM. It also gave a TGI (HS 578T breast) of 3.06 µM, a GI50 (RXF 393 renal) of 0.471 µM and a TGI (RXF 393 renal) of 2.14 µM. It also gave a GI50 (OVCAR-4 ovarian) of 2.98 µM, a TGI (OVCAR-4 ovarian) of over 100 µM and a GI50 (MCF7 breast) of 1.7 µM. For the same compound, the TGI (MCF7 breast) was over 100 µM, the GI50 (M14 melanoma) was 1.85 µM and the TGI (M14 melanoma) was over 100 µM. It also gave a GI50 (KM12 colon) of 2.86 µM, a TGI (KM12 colon) of over 100 µM and a GI50 (OVCAR-3 ovarian) of 1.66 µM. The TGI (OVCAR-3 ovarian) was over 100 µM.
`O=C(O)c1cc(-c2ccc(-c3ccccc3)cc2)nc2cc3ccccc3cc12` gave a TGI (PC-3 prostate) of over 100 µM, a TGI (ACHN renal) of over 100 µM and a TGI (OVCAR-5 ovarian) of over 100 µM. The TGI (HCT-15 colon) was over 100 µM, the TGI (786-0 renal) was 67.6 µM and the TGI (SN12C renal) was over 100 µM. For the same compound, the TGI (MOLT-4 leukemia) was over 100 µM, the TGI (NCI-H460 lung) was over 100 µM and the TGI (SF-539 CNS) was over 100 µM. It also gave a TGI (RPMI-8226 leukemia) of over 100 µM, a TGI (U251 CNS) of over 100 µM and a TGI (SW-620 colon) of over 100 µM. It also gave a TGI (TK-10 renal) of over 100 µM, a TGI (LOX IMVI melanoma) of over 100 µM and a TGI (SF-268 CNS) of over 100 µM. The TGI (CCRF-CEM leukemia) was 39.8 µM, the TGI (HCT-116 colon) was over 100 µM and the TGI (SK-MEL-5 melanoma) was over 100 µM. For the same compound, the TGI (NCI-H226 lung) was over 100 µM, the TGI (UACC-257 melanoma) was over 100 µM and the TGI (NCI-H23 lung) was over 100 µM. The TGI (MDA-MB-231 breast) was over 100 µM, the TGI (SK-MEL-28 melanoma) was over 100 µM and the TGI (SK-OV-3 ovarian) was over 100 µM. The TGI (HOP-62 NSCLC) was over 100 µM, the TGI (CAKI-1 renal) was over 100 µM and the TGI (NCI/ADR-RES ovarian) was over 100 µM. For the same compound, the TGI (SNB-75 CNS) was 69.9 µM, the TGI (NCI-H522 lung) was over 100 µM and the TGI (SR leukemia) was over 100 µM. For the same compound, the TGI (UO-31 renal) was over 100 µM, the TGI (HOP-92 NSCLC) was 82.2 µM and the TGI (T-47D breast) was over 100 µM. The TGI (A549 NSCLC) was over 100 µM, the TGI (BT-549 breast) was over 100 µM and the TGI (DU-145 prostate) was over 100 µM. The TGI (K-562 leukemia) was over 100 µM, the TGI (HT29 colon) was over 100 µM and the TGI (MDA-MB-435) was over 100 µM. It also gave a TGI (IGROV1 ovarian) of over 100 µM, a TGI (MALME-3M melanoma) of over 100 µM and a TGI (SF-295 CNS) of over 100 µM. It also gave a TGI (SK-MEL-2 melanoma) of over 100 µM, a TGI (EKVX NSCLC) of over 100 µM and a TGI (COLO 205 colon) of over 100 µM. For the same compound, the TGI (SNB-19 CNS) was over 100 µM, the TGI (OVCAR-8 ovarian) was over 100 µM and the TGI (HL-60(TB) leukemia) was over 100 µM. It also gave a TGI (A498 renal) of over 100 µM, a TGI (UACC-62 melanoma) of over 100 µM and a TGI (HS 578T breast) of over 100 µM. For the same compound, the TGI (RXF 393 renal) was over 100 µM, the TGI (OVCAR-4 ovarian) was over 100 µM and the TGI (MCF7 breast) was over 100 µM. The TGI (M14 melanoma) was over 100 µM, the TGI (KM12 colon) was over 100 µM and the TGI (OVCAR-3 ovarian) was over 100 µM.
